*1 amine or outer side, *2 acyl side, *3 side chain or, on linkers, in order; H or OH if unused. Where a SMILES comes first, the peptide text is derived from it. Side-chain parts run from the residue outwards. [ ]: non-standard residue; d: D form. The star is where a group is joined. C20 diacid = O=C(O)CCCCCCCCCCCCCCCCCCC(=O)*; γGlu = O=C(O)[C@H](CCC(=O)[*:2])N[*:1]; AEEA = NCCOCCOCC(=O)O; Aib = CC(C)(N)C(=O)O
Tests used:
db/db mice = experiment: Glucose metabolism level in db/db mice; format: in vivo, C57BL/KsJ-db/db mice
Description: Each administration group contained 10 db/db mice. According to the experimental design, tail vein blood was collected by needle pricking on days 0, 7, 14, 21 and 28 and determined for fasting blood glucose levels with a glucometer and glucose dipsticks, and the mice were fasted 6 h prior to the blood collection at each time point. Tail vein blood was collected by needle pricking on days 3, 10, 17, 24 and 27 and randomly determined for blood glucose levels with a glucometer. Finally, at the end of the experiment on day 28, all the animals in the administration groups were subjected to 2-5% isoflurane inhalation anesthesia, and 100 μL of EDTA-K2 anticoagulated whole blood was collected through the orbit of each mouse and used for the determination of glycated hemoglobin.

DIO mice = experiment: Food intake ration of diet-induced obese mice; format: in vivo, C57BL/6 mice
Description: (§1) High-fat food-induced obese male C57BL/6 mice (weighing 35-55 g, aged 10-12 weeks, purchased from Shanghai Jiesijie Laboratory Animal Co., Ltd.) were tested. […] According to the experimental design, the body weight of each mouse was measured and recorded on day 0, day 3, day 6 and so on to day 27, the average body weight of each group of mice was calculated, and weight change curves were plotted by taking the body weight on the first day as the standard. At the end, the fat and other visceral organs of each part of the mice were taken out and weighed, and the viscera/brain ratio for fat in each part of each mouse was calculated. The effect of the drug on the fat was determined by comparing the change in the organ/brain ratio for fat of different parts of each group of mice.
The food intake ration of mice in each group was measured daily during the test.

diet-induced obese mice = experiment: Body weight and fat mass in diet-induced obese mice; format: in vivo, C57BL/6 mice; conditions: for rate of change in body weight / viscera/brain ratio for fat mass, Epididymal fat / viscera/brain ratio for fat mass, Inguinal fat / viscera/brain ratio for fat mass, Mesenteric fat / viscera/brain ratio for fat mass, Perirenal fat / viscera/brain ratio for fat mass, Scapular fat / viscera/brain ratio for fat mass, Subcutaneous fat: DIO mice; for viscera/brain ratio for fat mass, Epididymal fat / viscera/brain ratio for fat mass, Inguinal fat / viscera/brain ratio for fat mass, Mesenteric fat / viscera/brain ratio for fat mass, Perirenal fat / viscera/brain ratio for fat mass, Scapular fat / viscera/brain ratio for fat mass, Subcutaneous fat: end of study
Description: as §1

## CC[C@H](C)[C@H](NC(=O)[C@H](CCCCN)NC(=O)[C@H](CCC(=O)O)NC(=O)[C@H](CCCCNC(=O)COCCOCCNC(=O)COCCOCCNC(=O)CC[C@H](NC(=O)CCCCCCCCCCCCCCCCCCC(=O)O)C(=O)O)NC(=O)[C@H](Cc1ccc(O)cc1)NC(=O)[C@@H](NC(=O)[C@H](CO)NC(=O)[C@H](Cc1ccc(O)cc1)NC(=O)[C@H](CC(=O)O)NC(=O)[C@H](CO)NC(=O)[C@@H](NC(=O)[C@H](Cc1ccccc1)NC(=O)[C@@H](NC(=O)CNC(=O)[C@H](CCC(=O)O)NC(=O)C(C)(C)NC(=O)[C@@H](N)Cc1ccc(O)cc1)[C@@H](C)O)[C@@H](C)O)[C@@H](C)CC)C(=O)N[C@@H](C)C(=O)N[C@@H](C)C(=O)N[C@@H](CCC(N)=O)C(=O)N[C@@H](CCC(=O)O)C(=O)N[C@@H](Cc1ccccc1)C(=O)N[C@H](C(=O)N[C@@H](CC(N)=O)C(=O)N[C@@H](Cc1c[nH]c2ccccc12)C(=O)N[C@@H](CC(C)C)C(=O)N[C@@H](CC(C)C)C(=O)N[C@@H](C)C(=O)NCC(=O)NCC(=O)N1CCC[C@H]1C(=O)N[C@@H](CO)C(=O)N[C@@H](CO)C(=O)NCC(=O)N[C@@H](C)C(=O)N1CCC[C@H]1C(=O)N1CCC[C@H]1C(=O)N1CCC[C@H]1C(=O)N[C@@H](CO)C(N)=O)C(C)C [Compound 18#] (H-Y[Aib]EGTFTSDYSIYK([AEEA-AEEA-γGlu-C20 diacid])EKIAAQEFVNWLLAGGPSSGAPPPS-NH2)
db/db mice; 10 nmol/kg sc, Day 0
  Concentration of fasting blood glucose: 14.77 ± 1.30 mmol/L
  Concentration of random blood glucose: 20.42 ± 1.56 mmol/L
db/db mice; 10 nmol/kg sc, Day 7
  Concentration of fasting blood glucose: 6.05 ± 0.42 mmol/L
db/db mice; 10 nmol/kg sc, Day 10
  Concentration of random blood glucose: 20.66 ± 1.48 mmol/L
db/db mice; 10 nmol/kg sc, Day 14
  Concentration of fasting blood glucose: 6.30 ± 0.46 mmol/L
db/db mice; 10 nmol/kg sc, Day 17
  Concentration of random blood glucose: 18.91 ± 1.33 mmol/L
db/db mice; 10 nmol/kg sc, Day 21
  Concentration of fasting blood glucose: 7.89 ± 0.81 mmol/L
db/db mice; 10 nmol/kg sc, Day 24
  Concentration of random blood glucose: 21.17 ± 2.07 mmol/L
db/db mice; 10 nmol/kg sc, Day 28
  Concentration of fasting blood glucose: 9.41 ± 0.97 mmol/L
db/db mice; 10 nmol/kg sc, day 28
  Glycated hemoglobin: 4.71 ± 0.23 %
db/db mice; 30 nmol/kg sc, Day 0
  Concentration of fasting blood glucose: 14.13 ± 1.32 mmol/L
  Concentration of random blood glucose: 16.73 ± 1.59 mmol/L
db/db mice; 30 nmol/kg sc, Day 7
  Concentration of fasting blood glucose: 6.21 ± 0.26 mmol/L
db/db mice; 30 nmol/kg sc, Day 10
  Concentration of random blood glucose: 15.88 ± 1.86 mmol/L
db/db mice; 30 nmol/kg sc, Day 14
  Concentration of fasting blood glucose: 6.40 ± 0.57 mmol/L
db/db mice; 30 nmol/kg sc, Day 17
  Concentration of random blood glucose: 17.30 ± 1.17 mmol/L
db/db mice; 30 nmol/kg sc, Day 21
  Concentration of fasting blood glucose: 7.03 ± 0.52 mmol/L
db/db mice; 30 nmol/kg sc, Day 24
  Concentration of random blood glucose: 17.43 ± 1.92 mmol/L
db/db mice; 30 nmol/kg sc, Day 28
  Concentration of fasting blood glucose: 9.68 ± 1.03 mmol/L
db/db mice; 30 nmol/kg sc, day 28
  Glycated hemoglobin: 4.53 ± 0.17 %
db/db mice; 100 nmol/kg sc, Day 0
  Concentration of fasting blood glucose: 14.67 ± 1.46 mmol/L
  Concentration of random blood glucose: 9.11 ± 1.25 mmol/L
db/db mice; 100 nmol/kg sc, Day 7
  Concentration of fasting blood glucose: 5.85 ± 0.33 mmol/L
db/db mice; 100 nmol/kg sc, Day 10
  Concentration of random blood glucose: 12.34 ± 1.12 mmol/L
db/db mice; 100 nmol/kg sc, Day 14
  Concentration of fasting blood glucose: 6.25 ± 0.32 mmol/L
db/db mice; 100 nmol/kg sc, Day 17
  Concentration of random blood glucose: 11.89 ± 1.15 mmol/L
db/db mice; 100 nmol/kg sc, Day 21
  Concentration of fasting blood glucose: 6.13 ± 0.19 mmol/L
db/db mice; 100 nmol/kg sc, Day 24
  Concentration of random blood glucose: 11.51 ± 0.95 mmol/L
db/db mice; 100 nmol/kg sc, Day 28
  Concentration of fasting blood glucose: 7.89 ± 0.41 mmol/L
db/db mice; 100 nmol/kg sc, day 28, listed as 18 #
  Glycated hemoglobin: 3.78%
db/db mice; 100 nmol/kg sc, day 28, listed as #18
  Glycated hemoglobin: 3.78 ± 0.13 %
DIO mice; 3 nmol/kg sc, day 3 after administration
  daily food intake ration: 2 ± 0.5 g
DIO mice; 3 nmol/kg, 28 days after the administration
  cumulative food intake ration: 58.2 g
DIO mice; 3 nmol/kg, within 5 days after the administration
  cumulative food intake ration: 7.2 g
DIO mice; 10 nmol/kg sc, day 9 after administration
  daily food intake ration: 2 ± 0.6 g
DIO mice; 10 nmol/kg sc, day 15 after administration
  daily food intake ration: 3 ± 0.9 g
DIO mice; 10 nmol/kg sc, day 20 after administration
  daily food intake ration: 2 ± 0.5 g
DIO mice; 10 nmol/kg, 28 days after the administration
  cumulative food intake ration: 46.8 g
DIO mice; 10 nmol/kg, within 5 days after the administration
  cumulative food intake ration: 3.9 g
DIO mice; 100 nmol/kg sc, day 15 after administration
  daily food intake ration: 2 ± 0.4 g
DIO mice; 100 nmol/kg sc, day 18 after administration
  daily food intake ration: 2 ± 0.4 g
DIO mice; 100 nmol/kg, 28 days after the administration
  cumulative food intake ration: 36.7 g
DIO mice; 100 nmol/kg, within 5 days after the administration
  cumulative food intake ration: 1.8 g
diet-induced obese mice; 3 nmol/kg sc, day 1 after administration
  rate of change in body weight: −5 ± 0.6%
diet-induced obese mice; 3 nmol/kg sc, day 6 after administration
  rate of change in body weight: −10 ± 4.4 %
diet-induced obese mice; 3 nmol/kg sc, day 7 after administration
  rate of change in body weight: −13 ± 5.3 %
diet-induced obese mice; 3 nmol/kg sc
  viscera/brain ratio for fat mass, Epididymal fat: 254.6 ± 113.4 %
  viscera/brain ratio for fat mass, Inguinal fat: 281.5 ± 140.1 %
  viscera/brain ratio for fat mass, Mesenteric fat: 84.8 ± 41.3 %
  viscera/brain ratio for fat mass, Perirenal fat: 159.2 ± 87.6 %
  viscera/brain ratio for fat mass, Scapular fat: 48 ± 15.3%
  viscera/brain ratio for fat mass, Subcutaneous fat: 120 ± 62 %
diet-induced obese mice; 10 nmol/kg sc, day 6 after administration
  rate of change in body weight: −15 ± 5.3 %
diet-induced obese mice; 10 nmol/kg sc, day 24 after administration
  rate of change in body weight: −26 ± 7.1 %
diet-induced obese mice; 10 nmol/kg sc
  viscera/brain ratio for fat mass, Epididymal fat: 211.7 ± 80.7 %
  viscera/brain ratio for fat mass, Inguinal fat: 194.4 ± 86.2 %
  viscera/brain ratio for fat mass, Mesenteric fat: 53.3 ± 14.6 %
  viscera/brain ratio for fat mass, Perirenal fat: 109.4 ± 57.1 %
  viscera/brain ratio for fat mass, Scapular fat: 42.5 ± 17^ %
  viscera/brain ratio for fat mass, Subcutaneous fat: 122 ± 73.2 %
diet-induced obese mice; 100 nmol/kg sc, day 20 after administration
  rate of change in body weight: −39 ± 6.5 %
diet-induced obese mice; 100 nmol/kg sc, day 23 after administration
  rate of change in body weight: −38 ± 5.9 %
diet-induced obese mice; 100 nmol/kg sc
  viscera/brain ratio for fat mass, Epididymal fat: 102.9 ± 32.2 %
  viscera/brain ratio for fat mass, Inguinal fat: 92 ± 34.5 %
  viscera/brain ratio for fat mass, Mesenteric fat: 27.4 ± 11.1 %
  viscera/brain ratio for fat mass, Perirenal fat: 46.6 ± 18.2 %
  viscera/brain ratio for fat mass, Scapular fat: 32.3 ± 7%
  viscera/brain ratio for fat mass, Subcutaneous fat: 57.1 ± 21.2 %
diet-induced obese mice; high-fat food-induced obese mice, 10 nmol/kg, day 27, text
  body weight reduced by: more than 20.0%

Source: patent US12653865B2, “Dual-agonist compound for both GLP-1 and GIP receptors and application thereof” (Jiangsu Hengrui Pharmaceuticals Co., Ltd., priority 2020, dated 2026)
